Calls of active or inactive are those of the source.
Tests used:
[1] = cells; assay type: functional, cell-based
[2] = target: T1, Beta-adrenergic receptor kinase 1 (Homo sapiens, UniProt P25098); test: aptamer displacement from bead-bound GRK2 – biochemical, cherry pick 1, bead flow cytometry, dose response (AID 504500)
T1 sequence (P25098 whole entry): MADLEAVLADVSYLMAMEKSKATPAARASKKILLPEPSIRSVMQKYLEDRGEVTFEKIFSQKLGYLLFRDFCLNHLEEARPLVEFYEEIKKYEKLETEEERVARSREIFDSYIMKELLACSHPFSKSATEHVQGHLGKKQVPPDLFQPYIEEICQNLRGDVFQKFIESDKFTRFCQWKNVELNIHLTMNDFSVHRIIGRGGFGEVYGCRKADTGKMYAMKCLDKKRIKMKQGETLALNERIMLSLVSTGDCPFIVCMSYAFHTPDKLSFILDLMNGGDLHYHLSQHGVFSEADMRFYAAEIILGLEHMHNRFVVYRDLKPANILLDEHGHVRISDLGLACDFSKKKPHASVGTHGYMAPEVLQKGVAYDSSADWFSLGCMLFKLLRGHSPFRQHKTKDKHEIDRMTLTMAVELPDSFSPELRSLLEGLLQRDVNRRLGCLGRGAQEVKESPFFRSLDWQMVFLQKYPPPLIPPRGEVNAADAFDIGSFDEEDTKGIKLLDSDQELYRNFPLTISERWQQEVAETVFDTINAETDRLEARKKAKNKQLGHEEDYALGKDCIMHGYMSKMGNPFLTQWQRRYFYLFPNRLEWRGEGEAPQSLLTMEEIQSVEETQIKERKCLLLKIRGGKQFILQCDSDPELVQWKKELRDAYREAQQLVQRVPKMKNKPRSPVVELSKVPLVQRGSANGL

[3] = target: T1, Beta-adrenergic receptor kinase 1; test: blockers of aptamer binding to GRK2 – biochemical, flow cytometry beads, FAM-aptamer, powder set 1, dose response (AID 588720)
[4] = target: T2, Carboxy-terminal domain RNA polymerase II polypeptide A small phosphatase 1 (Homo sapiens, UniProt Q9GZU7); test: CTDSP1 inhibitors, concentration-response, biochemical, absorbance readout, ultra-high-throughput screen actives (AID 540297); assay type: functional
T2 sequence (Q9GZU7 whole entry): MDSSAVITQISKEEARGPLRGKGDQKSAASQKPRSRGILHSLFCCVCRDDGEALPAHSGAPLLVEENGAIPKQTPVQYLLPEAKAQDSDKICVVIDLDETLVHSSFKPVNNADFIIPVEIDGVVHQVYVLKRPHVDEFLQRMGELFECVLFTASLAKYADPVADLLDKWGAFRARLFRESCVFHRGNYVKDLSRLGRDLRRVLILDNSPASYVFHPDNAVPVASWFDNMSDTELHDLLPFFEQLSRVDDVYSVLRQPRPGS

[5] = cells; assay type: functional, cell-based; remark: listed apart in the source
[6] = test system: Vero; test: cells; assay type: functional, cell-based; details: Chlorocebus sabaeus
[7] = test system: Vero; test: cells; assay type: functional; details: Chlorocebus sabaeus
[8] = target: T3, Mannose-6-phosphate isomerase (Homo sapiens, UniProt P34949); test: MPI enzyme activity inhibition – biochemical, fluorescence intensity, coupled assay, primary screen (AID 1209)
T3 sequence (P34949 whole entry): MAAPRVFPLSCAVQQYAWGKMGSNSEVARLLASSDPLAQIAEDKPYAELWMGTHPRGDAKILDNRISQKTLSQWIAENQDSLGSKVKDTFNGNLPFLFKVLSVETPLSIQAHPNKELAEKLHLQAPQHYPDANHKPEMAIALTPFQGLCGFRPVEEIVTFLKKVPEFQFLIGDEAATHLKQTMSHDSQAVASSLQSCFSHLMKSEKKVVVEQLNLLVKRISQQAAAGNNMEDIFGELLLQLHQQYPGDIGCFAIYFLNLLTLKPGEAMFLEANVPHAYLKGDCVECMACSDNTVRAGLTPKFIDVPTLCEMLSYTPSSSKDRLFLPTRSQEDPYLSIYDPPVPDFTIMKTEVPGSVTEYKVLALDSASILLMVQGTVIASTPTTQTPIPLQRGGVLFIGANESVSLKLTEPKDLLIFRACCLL

[9] = Trypanosoma cruzi growth suppression in host cells – NIH3T3 host cells, beta-gal luminescence, confirmation (AID 2044); assay type: functional, cell-based;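 further: intracellular parasites grown in NIH/3T3 mouse fibroblasts as host cells; luminescent beta-galactosidase reporter signal from transgenic T. cruzi replicating inside host cells; inhibitors lower the luminescence signal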
[10] = target: Nonstructural protein 1 (Influenza A virus, UniProt Q194T2); assay type: functional, Influenza A virus (A/California/07/2009(H1N1))
Chain of Nonstructural protein 1 (Q194T2 whole entry): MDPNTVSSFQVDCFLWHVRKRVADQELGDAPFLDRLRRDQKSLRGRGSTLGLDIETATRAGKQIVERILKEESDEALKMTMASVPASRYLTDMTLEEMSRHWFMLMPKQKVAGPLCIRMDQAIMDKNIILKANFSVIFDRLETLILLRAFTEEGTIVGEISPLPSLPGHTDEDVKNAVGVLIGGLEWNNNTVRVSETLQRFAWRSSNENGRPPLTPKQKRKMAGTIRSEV

[11] = NIH-3T3 fibroblast cytotoxicity, dose response, cytotoxicity control, cell-based, fluorescence, Alamar Blue, secondary assay (AID 2327); assay type: functional;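 further: NIH-3T3 mouse fibroblasts cultured with fluconazole at 8 µg/mL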
[12] = viability of HCT116 lacking mutant beta-catenin – cell-based, human colon tumor, dose response (AID 1045); assay type: functional;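 further: HCT116 colon tumor cells with beta catenin knocked out; cells exposed to compound for 60 hours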
[13] = fluconazole-exposed Candida albicans growth modulators – fluorescence, retest, confirmation (AID 2467); assay type: functional, cell-based
[14] = MIN6 cell viability loss – mouse insulinoma, cytotoxicity control, dose response (AID 2122); assay type: functional;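 further: confirmatory high-throughput counterscreen run to flag cytotoxic compounds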
[15] = decrease of insulin promoter-GFP reporter – imaging, high-content screening, mouse beta cells (AID 1628); assay type: functional; details: MIN6
[16] = viability of PTEN-deleted HCT116 cells – cell-based, HCT116 PTEN knockout, dose response (AID 1047); assay type: functional;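 further: HCT116 colon tumor cells with PTEN knocked out; cells exposed to compound for 60 hours before readout; potency for loss of cell viability measured by luminescence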
[17] = NIH3T3 cell viability loss – ATP luminescence, mouse fibroblasts, counter-screen, dose response (AID 2010); assay type: functional, cell-based;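 further: cells exposed to compound for about 90 hours before reading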
[18] = cytotoxicity toward MDA-MB-231 breast cancer cells – cell-based, CellTiter-Glo luminescence, cherry-pick, cytotoxicity control for RAD54 inhibitor project, dose response (AID 651692); assay type: functional
[19] = Luminescence-based counterscreen assay for KLF5 inhibitors: dose response cell-based high throughput screening assay to identify cytotoxic compounds using the IEC-6 intestinal epithelial cell line. [Related pubchem assays: 1700 (Primary screen.), 1834 (Confirmation screen.), 1858 (Summary AID.), 1905 (Counterscreen.)]; assay type: functional
[20] = test system: INS1; test: INS-1E survival protection against cytokine death – cell-based, luminescence, retest, dose response (AID 449756); assay type: functional; details: Rattus norvegicus;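 further: cell death triggered by IL-1 beta plus TNF-alpha plus IFN-gamma mixture; protective hits raise ATP signal compared with cytokine alone wells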
[21] = target: T4, DNA repair and recombination protein RAD54-like (Homo sapiens, UniProt Q92698); test: RAD54 Holliday junction migration blockers – biochemical, fluorescence, cherry-picked samples, dose series, confirmation (AID 651657); assay type: functional
T4 sequence (Q92698 whole entry): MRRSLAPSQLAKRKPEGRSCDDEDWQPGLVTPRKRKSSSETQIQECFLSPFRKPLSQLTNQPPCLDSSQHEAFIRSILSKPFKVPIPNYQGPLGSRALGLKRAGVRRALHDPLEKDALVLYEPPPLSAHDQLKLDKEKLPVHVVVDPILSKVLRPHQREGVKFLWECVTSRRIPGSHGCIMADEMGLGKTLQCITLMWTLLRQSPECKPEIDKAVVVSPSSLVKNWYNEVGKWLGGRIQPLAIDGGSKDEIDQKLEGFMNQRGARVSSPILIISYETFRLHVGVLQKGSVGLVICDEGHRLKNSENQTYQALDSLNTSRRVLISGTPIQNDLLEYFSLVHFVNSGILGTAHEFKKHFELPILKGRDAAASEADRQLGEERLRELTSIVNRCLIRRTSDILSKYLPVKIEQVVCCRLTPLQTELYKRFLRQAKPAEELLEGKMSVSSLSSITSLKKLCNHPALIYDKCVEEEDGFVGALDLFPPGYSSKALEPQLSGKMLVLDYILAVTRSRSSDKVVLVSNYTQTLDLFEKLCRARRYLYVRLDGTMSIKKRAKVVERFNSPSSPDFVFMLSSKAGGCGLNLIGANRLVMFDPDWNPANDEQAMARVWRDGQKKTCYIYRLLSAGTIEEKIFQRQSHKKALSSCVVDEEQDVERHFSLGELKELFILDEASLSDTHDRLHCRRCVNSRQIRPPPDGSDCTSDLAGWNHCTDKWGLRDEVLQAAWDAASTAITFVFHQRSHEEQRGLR

[22] = target: Mu-type opioid receptor (Homo sapiens, UniProt P35372); test: (§1) Counterscreen for agonists of heterodimerization of the mu 1 (OPRM1) and delta 1 (OPRD1) opioid receptors: Luminescence-based cell-based high throughput dose response assay to identify agonists of OPRM1 homodimerization.; assay type: functional
Chain of Mu-type opioid receptor (P35372 whole entry): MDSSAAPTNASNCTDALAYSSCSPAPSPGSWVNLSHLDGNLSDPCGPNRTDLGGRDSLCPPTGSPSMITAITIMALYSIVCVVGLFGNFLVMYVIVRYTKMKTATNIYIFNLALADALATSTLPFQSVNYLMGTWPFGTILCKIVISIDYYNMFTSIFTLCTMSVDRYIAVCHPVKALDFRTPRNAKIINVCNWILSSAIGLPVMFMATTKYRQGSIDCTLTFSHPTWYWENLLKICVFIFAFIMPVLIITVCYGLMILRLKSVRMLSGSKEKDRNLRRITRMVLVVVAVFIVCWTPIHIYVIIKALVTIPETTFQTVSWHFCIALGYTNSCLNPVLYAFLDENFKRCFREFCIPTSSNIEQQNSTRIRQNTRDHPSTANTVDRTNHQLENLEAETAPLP

[23] = target: Delta-type opioid receptor (Homo sapiens, UniProt P41143); test: as §1, with “of OPRD1” for “of OPRM1”, “homodimerization. [Related pubchem assays (depositor defined):AID504326, AID504355, AID504692, AID504904, AID504905]” for “homodimerization.”; assay type: functional
Chain of Delta-type opioid receptor (P41143 whole entry): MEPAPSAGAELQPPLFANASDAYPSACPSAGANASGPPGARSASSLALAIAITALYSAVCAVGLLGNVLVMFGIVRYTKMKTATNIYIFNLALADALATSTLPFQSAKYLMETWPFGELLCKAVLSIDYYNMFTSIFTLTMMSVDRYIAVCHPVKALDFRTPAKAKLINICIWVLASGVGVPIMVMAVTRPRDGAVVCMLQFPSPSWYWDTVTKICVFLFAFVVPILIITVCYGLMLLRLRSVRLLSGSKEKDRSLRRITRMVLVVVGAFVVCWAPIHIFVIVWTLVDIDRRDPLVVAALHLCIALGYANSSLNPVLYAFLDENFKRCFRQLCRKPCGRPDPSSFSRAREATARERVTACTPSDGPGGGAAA

[24] = target: 5-hydroxytryptamine receptor 5A (Homo sapiens, UniProt P47898); test: Counterscreen for agonists of OPRM1-OPRD1 heterodimerization: luminescence-based cell-based high throughput dose response assay to identify agonists of 5-hydroxytryptamine (serotonin) 5A receptor (HTR5A). [Related pubchem assays (depositor defined):AID504326, AID504355, AID504692, AID504904, AID504905]; assay type: functional
Chain of 5-hydroxytryptamine receptor 5A (P47898 whole entry): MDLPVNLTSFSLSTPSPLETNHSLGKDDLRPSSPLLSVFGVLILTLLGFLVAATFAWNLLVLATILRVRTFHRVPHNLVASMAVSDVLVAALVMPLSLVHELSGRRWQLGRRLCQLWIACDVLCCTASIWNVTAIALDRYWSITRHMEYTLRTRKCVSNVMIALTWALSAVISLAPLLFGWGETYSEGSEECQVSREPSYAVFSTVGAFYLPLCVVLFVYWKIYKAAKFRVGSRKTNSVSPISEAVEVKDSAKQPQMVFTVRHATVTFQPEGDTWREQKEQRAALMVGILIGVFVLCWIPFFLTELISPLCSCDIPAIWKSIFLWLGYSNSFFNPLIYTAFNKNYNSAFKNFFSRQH

[25] = target: T5, Short transient receptor potential channel 4 (Mus musculus, UniProt Q9QUQ5); test: calcium entry via TRPC4 opening agents – cell-based, HEK293 TRPC4/mu-opioid, Fluo-4 calcium, dose response (AID 434937); assay type: functional
T5 sequence (Q9QUQ5 whole entry): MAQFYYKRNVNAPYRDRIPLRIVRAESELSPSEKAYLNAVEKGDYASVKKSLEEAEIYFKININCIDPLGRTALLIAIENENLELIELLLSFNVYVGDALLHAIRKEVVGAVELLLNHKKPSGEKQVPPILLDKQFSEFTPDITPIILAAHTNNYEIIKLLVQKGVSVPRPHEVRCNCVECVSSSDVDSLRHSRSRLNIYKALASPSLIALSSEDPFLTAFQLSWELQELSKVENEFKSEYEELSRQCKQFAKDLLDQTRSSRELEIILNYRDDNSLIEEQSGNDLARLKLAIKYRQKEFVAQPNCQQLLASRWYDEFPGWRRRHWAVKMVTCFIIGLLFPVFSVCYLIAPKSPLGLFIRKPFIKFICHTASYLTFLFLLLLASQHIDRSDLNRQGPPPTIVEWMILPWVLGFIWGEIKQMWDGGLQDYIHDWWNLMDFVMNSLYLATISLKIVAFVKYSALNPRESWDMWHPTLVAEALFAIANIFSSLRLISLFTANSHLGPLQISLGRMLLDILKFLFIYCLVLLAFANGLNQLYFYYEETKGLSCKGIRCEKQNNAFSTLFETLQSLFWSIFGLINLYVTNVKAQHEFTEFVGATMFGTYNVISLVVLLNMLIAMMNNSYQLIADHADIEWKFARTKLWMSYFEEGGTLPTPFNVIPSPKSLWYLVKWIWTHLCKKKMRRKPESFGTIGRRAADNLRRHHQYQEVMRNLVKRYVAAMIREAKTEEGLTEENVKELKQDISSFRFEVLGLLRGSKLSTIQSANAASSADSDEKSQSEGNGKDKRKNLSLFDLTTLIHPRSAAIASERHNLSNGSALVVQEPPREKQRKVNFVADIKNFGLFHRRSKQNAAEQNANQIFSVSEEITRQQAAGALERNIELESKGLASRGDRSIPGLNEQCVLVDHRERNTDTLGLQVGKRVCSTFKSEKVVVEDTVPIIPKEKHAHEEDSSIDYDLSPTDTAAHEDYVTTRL

SMILES: O=C(CSc1nc2ccccc2c(=O)n1-c1ccccc1)NC(=O)CN1CCCC1=O
- EC50 [1]: > 350 µM (not active)
- EC50 [2]: 9.42 µM (active)
- EC50 [3]: 2.96 µM (active)
- IC50 [4]: 8.75 µM (active)
- EC50 [5]: > 350 µM (not active)

SMILES: COc1ccc(S(=O)(=O)N2CCOC23CCN(C(=O)c2ccc(Cl)cc2Cl)CC3)cc1
- IC50 [6]: > 25 µM (active)
- CC50 [7]: > 25 µM (active)

SMILES: Oc1cccc2ccc(Nc3ccccn3)nc12
- IC50 [8]: > 50 µM (not active)
- EC50 [9]: 1.12 µM (active)
- IC50 [10]: 2.35 µM (active)
- EC50 [11]: 4.93 µM (inconclusive)
- EC50 [12]: 0.713 µM (active)
- EC50 [13]: 1.55 µM (active)
- IC50 [14]: 2.35 µM (active)
- IC50 [15]: 3.03 µM (active)
- EC50 [16]: 1.23 µM (active)
- EC50 [17]: 6 µM (active)
- AC50 [18]: 15.1 µM (active)
- IC50 [19]: 6.8 µM (active)
- AC50 [20]: 1.18 µM (active)
- AC50 [21]: 15.5 µM (active)

SMILES: COc1ccc(C(CNC(=O)CCc2ccsc2)N(C)C)cc1 (stereo not given)
- EC50 [22]: 1.42 µM (active)
- EC50 [23]: 25.6 µM (inactive)
- EC50 [24]: > 92.4 µM (inactive)
- EC50 [25]: 0.0147 µM (active)

From ChEMBL document CHEMBL1201862, “PubChem BioAssay data set” (2004)
